Here are results for 50 compounds from PMC12040169 (PLOS Biology, 2025).

The term viability denotes a read-out of living cells in per cent, often relative to untreated cells.

A short description of the series: in vitro. The note with it: human, hela cells, % viability.
Regarding `CCOc1ccc(S(=O)(=O)N2CCN(Cc3cc(F)c(F)c(F)c3)CC2)c2cccnc12` [CBK062795], the viability at 28.5 h, 10 µM came to 95.4%.

With `COC(=O)CCc1ccc(S(=O)(=O)N2CCN(Cc3csc(-c4ccccc4)n3)CC2)cc1` [CBK062812], the viability at 28.5 h, 10 µM was 91.8%.

Take `CCC(C)(C)c1ccc(S(=O)(=O)N2CCN(Cc3ccc(C(C)=O)cc3)CC2)cc1` [CBK062826]: the viability at 28.5 h, 10 µM came out at 95.1%.

Consider `CCC(C)(C)c1ccc(S(=O)(=O)N2CCN(Cc3cc(C(=O)OC)n(C)c3)CC2)cc1` [CBK062831], for which the viability at 28.5 h, 10 µM stood at 96.3%.

Consider `CCC(C)(C)c1ccc(S(=O)(=O)N2CCCN(Cc3cn(C)c4ccccc34)CC2)cc1` [CBK062871], for which the viability at 28.5 h, 10 µM stood at 91.2%.

`CCCC(=O)c1ccc(S(=O)(=O)N2CCCN(Cc3cccc4cccnc34)CC2)cc1` [CBK062909]: the viability at 28.5 h, 10 µM was 93%.

For the compound `CCCC(=O)c1ccc(S(=O)(=O)N2CCCN(Cc3c[nH]nc3-c3ccc(F)cc3)CC2)cc1` [CBK062911], the viability at 28.5 h, 10 µM was 121%.

With `CCCC(=O)c1ccc(S(=O)(=O)N2CCCN(Cc3c(-c4ccccc4)nc4sccn34)CC2)cc1` [CBK062912], the viability at 28.5 h, 10 µM is 119%.

`CCCC(=O)c1ccc(S(=O)(=O)N2CCCN(Cc3ccc(F)cc3Cl)CC2)cc1` [CBK062917]: the viability at 28.5 h, 10 µM was determined as 116%.

`CCCC(=O)c1ccc(S(=O)(=O)N2CCCN(Cc3ccc(OC)c(F)c3)CC2)cc1` [CBK062926]: the viability at 28.5 h, 10 µM stood at 93.7%.

As for `Cc1c(F)cccc1CN1CCN(S(=O)(=O)c2ccc(C(=O)c3ccccc3)cc2)CC1` [CBK062929], the viability at 28.5 h, 10 µM was 102%.

Turning to `Cc1cc(CN2CCN(S(=O)(=O)c3ccc(C(=O)c4ccccc4)cc3)CC2)cc(C)c1O` [CBK062933], the viability at 28.5 h, 10 µM was 90.4%.

For the compound `CCOc1ccc(S(=O)(=O)N2CCCN(CCCC#N)CC2)c2cccnc12` [CBK062935], the viability at 28.5 h, 10 µM is 98.5%.

Turning to `O=S(=O)(c1ccc(C(F)(F)F)cc1Cl)N1CCCN(Cc2ccnc3ccccc23)CC1` [CBK062942], the viability at 28.5 h, 10 µM is 101%.

Take `O=S(=O)(c1ccc(C(F)(F)F)cc1Cl)N1CCCN(Cc2ccc(F)cc2F)CC1` [CBK062946]: the viability at 28.5 h, 10 µM was determined as 91.8%.

With `O=C(c1ccccc1)c1ccc(S(=O)(=O)N2CCN(Cc3ccc(O)c(F)c3)CC2)cc1` [CBK062948], the viability at 28.5 h, 10 µM was found to be 95.8%.

`N#Cc1ccc(CN2CCCN(S(=O)(=O)c3ccc(C(=O)c4ccccc4)cc3)CC2)cc1` [CBK062962]: the viability at 28.5 h, 10 µM is 89.9%.

For the compound `CCC(C)(C)c1ccc(S(=O)(=O)N2CCN(Cc3ccc(O)c(F)c3)CC2)cc1` [CBK062968], the viability at 28.5 h, 10 µM came to 91.7%.

Take `COC(=O)CCc1ccc(S(=O)(=O)N2CCN(Cc3cccc4cccnc34)CC2)cc1` [CBK062969]: the viability at 28.5 h, 10 µM turned out to be 87.8%.

Regarding `O=c1[nH]cc(CN2CCCN(S(=O)(=O)c3ccc(C(F)(F)F)cc3Cl)CC2)c(=O)[nH]1` [CBK062975], the viability at 28.5 h, 10 µM came to 106%.

With `COC(=O)CCc1ccc(S(=O)(=O)N2CCCN(Cc3cccc(Br)c3)CC2)cc1` [CBK062981], the viability at 28.5 h, 10 µM came to 102%.

For the compound `COC(=O)CCc1ccc(S(=O)(=O)N2CCCN(Cc3c[nH]c4ccc(OC)cc34)CC2)cc1` [CBK062985], the viability at 28.5 h, 10 µM was 98.1%.

Take `COC(=O)CCc1ccc(S(=O)(=O)N2CCCN(Cc3cc(F)cc(F)c3)CC2)cc1` [CBK062990]: the viability at 28.5 h, 10 µM worked out at 106%.

For the compound `COC(=O)CCc1ccc(S(=O)(=O)N2CCCN(Cc3c[nH]c4ccc(Cl)cc34)CC2)cc1` [CBK063000], the viability at 28.5 h, 10 µM came to 99.2%.

With `COC(=O)CCc1ccc(S(=O)(=O)N2CCCN(Cc3c(-c4ccccc4)noc3C)CC2)cc1` [CBK063011], the viability at 28.5 h, 10 µM worked out at 97.3%.

In the case of `CCOC(=O)C1CC1CN1CCCN(S(=O)(=O)c2ccc(C(=O)c3ccccc3)cc2)CC1` (centres unmarked) [CBK063028], the viability at 28.5 h, 10 µM was found to be 88.6%.

Take `CCOc1ccc(S(=O)(=O)N2CCCN(Cc3c[nH]c(C)n3)CC2)c2cccnc12` [CBK063031]: the viability at 28.5 h, 10 µM amounted to 101%.

In the case of `Cc1nc[nH]c1CN1CCCN(S(=O)(=O)c2ccc(C(F)(F)F)cc2Cl)CC1` [CBK063035], the viability at 28.5 h, 10 µM came to 112%.

In the case of `O=S(=O)(c1ccc(C(F)(F)F)cc1Cl)N1CCCN(Cc2ccc3cccc(O)c3n2)CC1` [CBK063036], the viability at 28.5 h, 10 µM stood at 101%.

As for `O=S(=O)(c1ccc(-c2ccccc2)cc1)N1CCCN(CCCO)CC1` [CBK063043], the viability at 28.5 h, 10 µM was found to be 102%.

On to `CCOc1ccc(S(=O)(=O)N2CCN(CCCC#N)CC2)c2cccnc12` [CBK063046], for which the viability at 28.5 h, 10 µM came out at 91.6%.

In the case of `CCC(C)(C)c1ccc(S(=O)(=O)N2CCCN(Cc3ccc4cccc(O)c4n3)CC2)cc1` [CBK063051], the viability at 28.5 h, 10 µM is 90.5%.

`Cc1noc(-c2ccccc2)c1CN1CCCN(S(=O)(=O)c2ccc(C(F)(F)F)cc2Cl)CC1` [CBK063104]: the viability at 28.5 h, 10 µM amounted to 103%.

On to `CC(=O)c1ccc(CN2CCCN(S(=O)(=O)c3ccc(C(F)(F)F)cc3Cl)CC2)cc1` [CBK063106], for which the viability at 28.5 h, 10 µM is 104%.

Turning to `COc1ccc(CN2CCCN(S(=O)(=O)c3ccc(-c4ccccc4)cc3)CC2)cc1F` [CBK063108], the viability at 28.5 h, 10 µM turned out to be 111%.

Consider `O=S(=O)(c1ccc(-c2ccccc2)cc1)N1CCCN(Cc2ccc(F)c(C(F)(F)F)c2)CC1` [CBK063115], for which the viability at 28.5 h, 10 µM came to 98.9%.

For the compound `COc1ccc2c(c1)c(CN1CCCN(S(=O)(=O)c3ccc(-c4ccccc4)cc3)CC1)cn2C` [CBK063125], the viability at 28.5 h, 10 µM was 104%.

For the compound `O=S(=O)(c1ccc(-c2ccccc2)cc1)N1CCCN(Cc2cccnc2N2CCOCC2)CC1` [CBK063127], the viability at 28.5 h, 10 µM came to 99.5%.

Take `CCC(C)(C)c1ccc(S(=O)(=O)N2CCN(CCCC#N)CC2)cc1` [CBK063134]: the viability at 28.5 h, 10 µM was 93.4%.

For `CCC(C)(C)c1ccc(S(=O)(=O)N2CCN(CCCOC3CCCCO3)CC2)cc1` (centres unmarked) [CBK063135], the viability at 28.5 h, 10 µM turned out to be 96.9%.

`O=S(=O)(c1ccc(-c2ccccc2)cc1)N1CCCN(CCCOC2CCCCO2)CC1` (centres unmarked) [CBK063137]: the viability at 28.5 h, 10 µM came to 114%.

For `CCCC(=O)c1ccc(S(=O)(=O)N2CCN(Cc3cccc(Br)c3)CC2)cc1` [CBK063146], the viability at 28.5 h, 10 µM stood at 87.4%.

Regarding `CCCC(=O)c1ccc(S(=O)(=O)N2CCN(Cc3ccc(C(C)=O)cc3)CC2)cc1` [CBK063159], the viability at 28.5 h, 10 µM was 107%.

With `CCCC(=O)c1ccc(S(=O)(=O)N2CCN(Cc3csc(-c4ccccc4)n3)CC2)cc1` [CBK063161], the viability at 28.5 h, 10 µM is 93.3%.

Turning to `CCCC(=O)c1ccc(S(=O)(=O)N2CCN(Cc3ccc(F)c(C(F)(F)F)c3)CC2)cc1` [CBK063162], the viability at 28.5 h, 10 µM is 101%.

For the compound `O=S(=O)(c1ccc(C(F)(F)F)cc1Cl)N1CCN(Cc2cccc(Br)c2)CC1` [CBK063163], the viability at 28.5 h, 10 µM was 83.7%.

For the compound `COc1ccc2[nH]c3c(c2c1)CCN(S(C)(=O)=O)C31CCN(CCOc2ccccc2)C1` (centres unmarked) [CBK063187T], the viability at 28.5 h, 10 µM was 92.9%.

On to `COc1ccc([C@@]23CC[C@H](NC(=O)Nc4cccc(C(F)(F)F)c4F)C[C@@H]2CN(C)C3)cc1OC` [CBK063200A], for which the viability at 28.5 h, 10 µM stood at 92.3%.

As for `CCCCc1ccc(NC(=O)Nc2ccc3ccc(Cl)nc3n2)cc1` [CBK063259], the viability at 28.5 h, 10 µM came out at 114%.

Regarding `O=C(Nc1cc2ccccc2c(Br)n1)N[C@@H]1C[C@H]1c1ccccc1` [CBK063276], the viability at 28.5 h, 10 µM was 92.3%.
